# Measured values from US8273788B2, “Five-membered iminocyclitol derivatives as selective and potent glycosidase inhibitors: new structures for antivirals and osteoarthritis therapeutics” (Academia Sinica, Taiwan, priority 2005, dated 2012).
# “And” between values parts separate entries of the source, which are not always exact repeats. Equal values may be shown once. Read-outs that look alike come from different tables or passages of the source.
# How the values were obtained:
# [1] = system: N-acetyl-β-hexosaminidase; assay: N-acetyl-β-hexosaminidase inhibition assay (in situ screen, IC50, Ki); type: biochemical, jack bean; details: for N-acetyl-β-hexosaminidse Inhibition (%): reaction product at 30 μM, in situ screening; for IC50: pure compound, read-out: N-acetyl-β-hexosaminidse IC50
# Description: (§1) A mixture of iminocyclitol 4, a carboxylic acid (1 equiv, Scheme 2), diisopropyl ethylamine (DIEA, 2.2 equiv), and (1H-benzotriazole-1-yl)-1,1,3,3-tetramethyl-uronium hexafluorophosphate (HBTU, 1.1 equiv) in DMSO was shaken in 96-well microtiter plates for 5 h. Crude reaction products were randomly selected (30%) and analyzed by ESI-MS to ensure the presence of the desired products. The reaction mixture was diluted by appropriate buffer solutions and transferred to another 96-well microtiter plate for screening directly without any purification. […] Assuming the amide formation is complete, the percentage of inhibition relative to the control was calculated on the basis of absorbance at 405 nm for p-nitrophenol released from their corresponding substrates.
# (§2) Enzyme assay. General procedure for the assay with various glycosidases. The initial velocities of the hydrolysis were measured spectrophotometrically at various concentrations of p-nitrophenyl-glycopyranoside (4 mM, 2 mM, 1 mM, 0.5 mM, 0.25 mM, 0.125 mM, 0.0625 mM) at 405 nm using Bio Assay Reader (Perkin Elmer HTS 7000 Plus) at 30° C. The obtained data were fitted into the Michaelis-Menten equation by using the Kaleida Graph program to determine the apparent Km values. […] The assays performed in wells of the microtiter plate contained either sodium phosphate buffer (50 mM, pH 7, for α- and β-glucosidase, α- and β-galactosidase, α- and β-mannosidase, α-fucosidase), or Mcllvaine's buffer (25 mM, pH 6, N-acetyl-β-hexosaminidase, jack bean).
# (§3) The secondary plot was generated by plotting the apparent Km values as a function of inhibitor concentrations. Ki was calculated from the negative value of the x-intercept of this plot.
# β-glucosidase = β-glucosidase inhibition assay (in situ screen, IC50, Ki); type: biochemical, almonds; details: for β-glucosidase Inhibition (%): reaction product at 20 μM, in situ screening; for IC50: pure compound; for Ki: value in brackets
# Description: as §1, §2, §3
# α-glucosidase = biological target: T1, α-glucosidase (Saccharomyces cerevisiae, UniProt P53341); assay: α-glucosidase inhibition assay (in situ screen, IC50, Ki); type: biochemical, baker's yeast; details: for α-glucosidase Inhibition (%): reaction product at 20 μM, in situ screening; for IC50: pure compound
# T1 construct: purchased Sigma Co. (St. Louis, Mo.); host or cells: baker's yeast
# Description: as §1
# General procedure for coupling reactions and in situ screening. To a DMSO solution (10 μL) in each well of a 96-well microtiter plate was added each carboxylic acid (10 μL from a 10 mm stock solution in DMSO, 0.1 μmol), HBTU (10 μL from a 11 mm stock solution in DMSO, 1.1 equiv, 0.11 μmol), and DIEA (10 μL from a 22 mM stock solution in DMSO, 2.2 equiv, 0.22 μmol).
# as §2, §3
# [2] = system: dengue virus serotype 2 (DEN-2); assay: Anti-DEN-2 cell-based assay (plaque forming assay, BHK-21 cells)
# [3] = system: Japanese encephalitis virus (JEV); assay: Anti-JEV cell-based assay (plaque forming assay, BHK-21 cells)
# [4] = value in brackets, read-out: α-glucosidase (Ki)
# T1 sequence (P53341 whole entry): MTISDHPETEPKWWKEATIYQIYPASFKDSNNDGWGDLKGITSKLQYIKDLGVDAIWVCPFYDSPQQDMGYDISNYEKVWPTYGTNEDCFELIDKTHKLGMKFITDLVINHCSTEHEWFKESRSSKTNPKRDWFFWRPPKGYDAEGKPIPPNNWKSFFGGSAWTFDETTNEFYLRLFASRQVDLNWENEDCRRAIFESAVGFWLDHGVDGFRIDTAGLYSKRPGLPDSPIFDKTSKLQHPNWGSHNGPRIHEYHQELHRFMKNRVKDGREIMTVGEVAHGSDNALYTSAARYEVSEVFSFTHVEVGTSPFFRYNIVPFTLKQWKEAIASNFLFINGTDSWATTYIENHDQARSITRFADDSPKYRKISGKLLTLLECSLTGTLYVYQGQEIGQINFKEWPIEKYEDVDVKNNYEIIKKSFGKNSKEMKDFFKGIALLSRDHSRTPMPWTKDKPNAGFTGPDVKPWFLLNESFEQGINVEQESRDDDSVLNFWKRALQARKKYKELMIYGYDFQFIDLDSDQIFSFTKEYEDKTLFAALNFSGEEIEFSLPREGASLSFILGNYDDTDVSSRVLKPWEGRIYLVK
SMILES,N-acetyl-β-hexosaminidse Inhibition (%) [1] [%],β-glucosidase Inhibition (%) (β-glucosidase),α-glucosidase Inhibition (%) (α-glucosidase),IC50 [1] [µM],IC50 (β-glucosidase) [µM],IC50 (α-glucosidase) [µM],also measured
O=C(CO)NC[C@H]1N[C@H](CO)[C@@H](O)[C@@H]1O [Compound 6],67,23,10,,,,
CCCCC(CC)C(=O)NC[C@H]1N[C@H](CO)[C@@H](O)[C@@H]1O (some centres unmarked) [Compound 7],20,52,61,19,4.8,4,inhibition of DEN-2 infection ([2]; at 50 and 100 μM): no inhibition; inhibition of JEV infection ([3]; at 50 and 100 μM): no inhibition
NC(Cn1ccc(=O)cc1)C(=O)NCC1NC(CO)C(O)C1O (centres unmarked) [Compound 9],53,37,27,,,,
O=C(NC[C@H]1N[C@H](CO)[C@@H](O)[C@@H]1O)c1ccccc1 [Compound 10],13,12,16,,,,
CN(C)c1ccc(C(=O)NC[C@H]2N[C@H](CO)[C@@H](O)[C@@H]2O)cc1 [Compound 11],6,55,41,,,,
O=C(/C=C/c1cccc(C(F)(F)F)c1)NC[C@H]1N[C@H](CO)[C@@H](O)[C@@H]1O [Compound 12],8,49,19,,,,
O=C(/C=C/c1cccc(Cl)c1)NC[C@H]1N[C@H](CO)[C@@H](O)[C@@H]1O [Compound 13],3,59,19,,,,
CSc1ccccc1C(=O)NC[C@H]1N[C@H](CO)[C@@H](O)[C@@H]1O [Compound 14],54,7,51,,,,
O=C(NC[C@H]1N[C@H](CO)[C@@H](O)[C@@H]1O)c1ccc2ccccc2c1 [Compound 15],31,28,45,44,58,100,Ki (β-glucosidase): 30 µM
O=C(Cc1ccc2ccccc2c1)NC[C@H]1N[C@H](CO)[C@@H](O)[C@@H]1O [Compound 16],10,44,67,15,49,19,
O=C(Cc1cccc2ccccc12)NC[C@H]1N[C@H](CO)[C@@H](O)[C@@H]1O [Compound 17],45,45,94,,92,0.28,inhibition of DEN-2 infection ([2]; at 50 and 100 μM): no inhibition; inhibition of JEV infection ([3]; at 50 and 100 μM): no inhibition; Ki (α-glucosidase; [4]): 0.077 µM
COC(=O)c1ccc2[nH]c(C(=O)NC[C@H]3N[C@H](CO)[C@@H](O)[C@@H]3O)cc2c1 [Compound 18],23,53,36,42,10,120,Ki (β-glucosidase): 6.2 µM
O=C(NC[C@H]1N[C@H](CO)[C@@H](O)[C@@H]1O)c1ccc2[nH]ccc2c1 [Compound 19],14,15,82,,,,
O=C(Cc1c[nH]c2ccccc12)NC[C@H]1N[C@H](CO)[C@@H](O)[C@@H]1O [Compound 20],29,23,85,,130,1.2,inhibition of DEN-2 infection ([2]; at 50 and 100 μM): no inhibition; inhibition of JEV infection ([3]; at 50 and 100 μM): no inhibition; Ki (α-glucosidase; [4]): 0.43 µM
O=C(CCc1c[nH]c2ccccc12)NC[C@H]1N[C@H](CO)[C@@H](O)[C@@H]1O [Compound 21],27,20,83,3.2,75,11,
O=C(/C=C/c1c[nH]c2ccccc12)NC[C@H]1N[C@H](CO)[C@@H](O)[C@@H]1O [Compound 22],16,34,42,63,260,0.81,inhibition of DEN-2 infection ([2]; at 50 and 100 μM): no inhibition; inhibition of JEV infection ([3]; at 50 and 100 μM): no inhibition
O=C(NC[C@H]1N[C@H](CO)[C@@H](O)[C@@H]1O)c1cn(Cc2ccccc2)c2ccccc12 [Compound 23],14,28,63,4.7,92,17,
O=C(NC[C@H]1N[C@H](CO)[C@@H](O)[C@@H]1O)C1Cc2ccccc21 (some centres unmarked) [Compound 24],9,45,93,11,92,0.15,"inhibition of DEN-2 infection ([2]; at 50 and 100 μM): no inhibition; inhibition of JEV infection ([3]; at 50 and 100 μM): no inhibition; selectivity for α- over β-glucosidase (α-glucosidase): 600 fold; Ki (α-glucosidase; text b9, read-out: Ki, α-glucosidase): 0.053 µM; Ki (α-glucosidase; text b34, read-out: Ki against yeast α-glucosidase): 0.053 µM; Ki (α-glucosidase; [4]): 0.053 µM; increase in activity compared to parent core 4 (α-glucosidase; α-glucosidase): 100 fold"
O=C(NC[C@H]1N[C@H](CO)[C@@H](O)[C@@H]1O)c1ccc2c(c1)C(=O)c1ccccc1-2 [Compound 25],17,63,56,,,,
O=C(/C=C/c1cccc(Br)c1)NC[C@H]1N[C@H](CO)[C@@H](O)[C@@H]1O [Compound 26],17,52,31,,,,
Cc1ccc(/C=C/C(=O)NC[C@H]2N[C@H](CO)[C@@H](O)[C@@H]2O)cc1 [Compound 27],6,55,26,,,,
COc1ccc(/C=C/C(=O)NC[C@H]2N[C@H](CO)[C@@H](O)[C@@H]2O)cc1OC(C)=O [Compound 28],52,,27,,2.4,250,Ki (β-glucosidase): 1.24 µM and 1.2 µM
CN(C)c1ccc(/C=C/C(=O)NC[C@H]2N[C@H](CO)[C@@H](O)[C@@H]2O)cc1 [Compound 29],17,55,22,7.02,3.2,280,Ki (β-glucosidase): 1.4 µM
CC(=O)OC[C@H]1N[C@H](CNC(=O)C2Cc3ccccc32)[C@@H](OC(C)=O)[C@@H]1OC(C)=O (some centres unmarked) [Compound 30],,,,,,,inhibition of DEN-2 infection ([2]; at 50 μM): no inhibition; inhibition of JEV infection ([3]; at 50 μM): no inhibition
CCCCCCCCCN1C(CO)C(O)C(O)C1CNC(=O)C1Cc2ccccc21 (centres unmarked) [Compound 36],,,,,,,"IC50 ([2]; read-out: DEN IC50, M.O.I. = 0.1, virus production, BHK-21 cells): 11.8 ± 0.2 µM; IC90 ([2]; read-out: DEN IC90, M.O.I. = 0.1, virus production, BHK-21 cells): 18 ± 0.2 µM; IC50 ([3]; read-out: JEV IC50, M.O.I. = 0.1, virus production, BHK-21 cells): 11.3 ± 1.9 µM; IC90 ([3]; read-out: JEV IC90, M.O.I. = 0.1, virus production, BHK-21 cells): 17.5 ± 0.8 µM"
